Results as given in patent US10829500B2, “Pyridyl-triazabicycles” (Hoffmann-La Roche Inc., priority 2014, dated 2020).

Biological target: BACE1 (Homo sapiens (Human), UniProt P56817)
Assay: Cellular Aβ-lowering assay (Abeta 40 AlphaLISA) in HEK293 APP cells
Format: cell-based
Conditions: Aβ 40 in culture supernatant after 18-20 hrs incubation
Description: Cellular Aβ-Lowering Assay:
The Abeta 40 AlphaLISA Assay can be used. The HEK293 APP cells were seeded in 96 well Microtiter plates in cell culture medium (Iscove's, plus 10% (v/v) fetal bovine serum, penicillin/streptomycin) to about 80% confluency and the compounds were added at a 3× concentration in ⅓ volume of culture medium (final DMSO concentration was kept at 1% v/v). After 18-20 hrs incubation at 37° C. and 5% CO2 in a humidified incubator, the culture supernatants were harvested for the determination of Aβ 40 concentrations using Perkin-Elmer Human Amyloid beta 1-40 (high specificity) Kit (Cat # AL275C).
In a Perkin-Elmer White Optiplate-384 (Cat #6007290), 2 ul culture supernatants were combined with 2 μl of a 10× AlphaLISA Anti-hAβAcceptor beads+Biotinylated Antibody Anti-Aβ 1-40 Mix (50 μg/mL/5 nM). After 1 hour room temperature incubation, 16 μl of a 1.25× preparation of Streptavidin (SA) Donor beads (25 μg/mL) were added and incubated for 30 minutes in the Dark. Light Emission at 615 nm was then recorded using EnVision-Alpha Reader. Levels of A β 40 in the culture supernatants were calculated as percentage of maximum signal (cells treated with 1% DMSO without inhibitor). The IC50 values were calculated using the Excel XLfit software.

Chain of BACE1 (P56817 46-501): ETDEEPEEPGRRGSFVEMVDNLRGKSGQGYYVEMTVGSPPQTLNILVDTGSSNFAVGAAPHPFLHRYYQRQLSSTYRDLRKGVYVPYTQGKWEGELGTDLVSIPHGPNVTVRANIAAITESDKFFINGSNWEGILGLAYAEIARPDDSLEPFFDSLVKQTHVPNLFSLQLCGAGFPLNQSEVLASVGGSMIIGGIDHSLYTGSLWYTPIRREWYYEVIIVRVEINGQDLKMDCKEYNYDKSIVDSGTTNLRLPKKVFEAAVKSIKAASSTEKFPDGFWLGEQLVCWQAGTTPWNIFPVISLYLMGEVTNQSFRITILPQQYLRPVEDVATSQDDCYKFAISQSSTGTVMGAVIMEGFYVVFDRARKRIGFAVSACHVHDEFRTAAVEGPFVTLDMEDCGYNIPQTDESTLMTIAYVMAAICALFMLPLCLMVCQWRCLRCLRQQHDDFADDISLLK

Point of comparison: N#Cc1ccc(C(=O)Nc2ccc(F)c([C@]3(CF)C[S@@]4(=O)=NCCCCN4C(N)=N3)n2)nc1 [Example 5, N-[6[(1R,10S)-8-Amino-10-(fluoromethyl)-1-oxo-1λ^6-thia-2,7,9-triazabicyclo[5.4.0]undeca-1,8-dien-10-yl]-5-fluoropyridin-2-yl]-5-cyanopyridine-2-carboxamide], IC50 28 nM. Against it:
- N#Cc1ccc(C(=O)Nc2ccc(F)c([C@]3(CF)C[S@]4(=O)=NCCCCN4C(N)=N3)n2)nc1 [Example 4, N-[6-[(1S,10S)-8-Amino-10-(fluoromethyl)-1-oxo-1λ^6-thia-2,7,9-triazabicyclo[5.4.0]undeca-1,8-dien-10-yl]-5-fluoropyridin-2-yl]-5-cyanopyridine-2-carboxamide] — 3.4-fold higher, 96 nM
- C[C@@]1(c2nc(NC(=O)c3ccc(C#N)cn3)ccc2F)CS2(=O)=NCCCCN2C(N)=N1 (stereo in doubt) [Example 2, 5-Cyano-pyridine-2-carboxylic acid [6-((3R,4aS)-1-amino-3-methyl-4a-oxo-3,4,6,7,8,9-hexahydro-4aλ^6-thia-2,5,9a-triaza-benzocyclohepten-3-yl)-5-fluoro-pyridin-2-yl]-amide] — 1.8-fold higher, 49 nM
- C[C@@]1(c2nc(NC(=O)c3ccc(C#N)cn3)ccc2F)CS2(=O)=NCCCCN2C(N)=N1 (stereo in doubt) [Example 1, 5-Cyano-pyridine-2-carboxylic acid [6-((3R,4aR)-1-amino-3-methyl-4a-oxo-3,4,6,7,8,9-hexahydro-4aλ^6-thia-2,5,9a-triaza-benzocyclohepten-3-yl)-5-fluoro-pyridin-2-yl]-amide] — 3.1-fold higher, 86 nM
- Cc1cc(C#N)cnc1C(=O)Nc1ccc(F)c([C@]2(C)C[S@@]3(=O)=NCCCCN3C(N)=N2)n1 [Example 3] — within 1.5-fold, 36 nM
